# Reference: patent US20120214862A1, “MODULATION OF FACTOR 7 EXPRESSION” (ISIS Pharmaceuticals, Inc., priority 2009, published 2012)
# In the oligonucleotide strings, read from the 5' end, every base follows the letter of its sugar. An asterisk marks phosphorothioate; unmarked linkages are phosphodiester. Other units and linkages are bracketed, terminal groups are in braces. A string of capitals states the bases alone. e = 2'-O-(2-methoxyethyl) (MOE); [5mC] = 5-methylcytosine; d = 2'-deoxy (DNA)
# Key:
# human Factor 7 mRNA [1] = assay: Antisense inhibition of human Factor 7 mRNA in HepB3 cells, lipofectin, 50 nM, real-time RT-PCR; type: cell-based; settings: HepB3 cells; for % Inhibition (human Factor 7 mRNA): 50 nM, ~24 h
# In short: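 Percent inhibition, untreated cells as reference: derived from RNA collected about 24 hours post-transfection of 4,000-cell wells, with the human RTS 2927 primer probe set and adjustment for total RNA content (RIBOGREEN®).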
# human Factor 7 mRNA [2] = assay: Dose-dependent antisense inhibition of human Factor 7 in HepB3 cells, transfection with lipofectin; type: cell-based; settings: HepB3, lipofectin, ~16 h
# Description: Cells were plated at a density of 4,000 cells per well and treated with lipofectin reagent with 3.125 nM, 6.25 nM, 12.5 nM, 25 nM, 50 nM, and 100 nM concentrations of antisense oligonucleotide, as indicated in Table 3. After a treatment period of approximately 16 hours, RNA was isolated from the cells and Factor 7 mRNA levels were measured by real-time RT-PCR, as described herein. Human Factor 7 primer probe set RTS 2927 (forward sequence: […], incorporated herein as SEQ ID NO: 164; reverse sequence: […], incorporated herein as SEQ ID NO: 165; probe sequence: TGGGTGGTCTCCGCGGCCX, incorporated herein as SEQ ID NO: 166) was used to measure mRNA levels. Factor 7 mRNA levels were adjusted according to total RNA content as measured by RIBOGREEN®. Results are presented as percent inhibition of Factor 7, relative to untreated control cells.
# Cells were plated at a density of 4,000 cells per well and transfected using lipofectin reagent with 6.25 nM, 12.5 nM, 25.0 nM, 50.0 nM, and 100.0 nM concentrations of antisense oligonucleotide, as indicated in Table 7. After a treatment period of approximately 16 hours, RNA was isolated from the cells and Factor 7 mRNA levels were measured by real-time RT-PCR, as described herein. Human Factor 7 primer probe set RTS 2927 was used to measure mRNA levels. Factor 7 mRNA levels were adjusted according to total RNA content as measured by RIBOGREEN®. Results are presented as percent inhibition of Factor 7, relative to untreated control cells.
# Cells were plated at a density of 4,000 cells per well and transfected using lipofectin reagent with 3.125 nM, 6.25 nM, 12.5 nM, 25 nM, 50 nM, and 100 nM concentrations of antisense oligonucleotide, as specified in Table 14. After a treatment period of approximately 16 hours, RNA was isolated from the cells and Factor 7 mRNA levels were measured by quantitative real-time PCR. Human Factor 7 primer probe set RTS 2927 was used to measure mRNA levels. Factor 7 mRNA levels were adjusted according to total RNA content, as measured by RIBOGREEN®. Results are presented as percent inhibition of Factor 7, relative to untreated control cells.
# [3] = Example 1, lipofectin, relative to untreated control cells
# [4] = lipofectin, 50 nM antisense oligonucleotide, approximately 24 hours, primer probe set RTS 2927, relative to untreated control
# [5] = gapmers targeted to nucleobases 14707 to 14732 of SEQ ID NO: 1 (Table 11)
# [6] = gapmers targeted to nucleobases 11830 to 11869 of SEQ ID NO: 1 (Table 9)
# [7] = Example 4, lipofectin, relative to untreated control
substance,measurement,setting,value
407594 (antisense e[5mC]*e[5mC]*eT*eG*e[5mC]*dA*dG*d[5mC]*d[5mC]*dA*dG*dG*d[5mC]*dA*dG*e[5mC]*e[5mC]*e[5mC]*eT*eG) [compound 407594],% Inhibition (human Factor 7 mRNA),human Factor 7 mRNA [1]; [3],87%
same,"percent inhibition of Factor 7 mRNA, 3.125 nM","human Factor 7 mRNA [2]; Example 2, 3.125 nM",10%
same,"percent inhibition of Factor 7 mRNA, 6.25 nM",human Factor 7 mRNA [2]; Example 2,34%
same,"percent inhibition of Factor 7 mRNA, 12.5 nM",human Factor 7 mRNA [2]; Example 2,63%
same,"percent inhibition of Factor 7 mRNA, 25.0 nM",human Factor 7 mRNA [2]; Example 2,77%
same,"percent inhibition of Factor 7 mRNA, 50.0 nM",human Factor 7 mRNA [2]; Example 2,84%
same,"percent inhibition of Factor 7 mRNA, 100.0 nM",human Factor 7 mRNA [2]; Example 2,80%
416508 (antisense e[5mC]*eG*eA*eG*eT*dT*d[5mC]*dT*dG*d[5mC]*dA*dG*dG*dA*dG*e[5mC]*eG*eG*e[5mC]*e[5mC]) [compound 416508],% Inhibition of human Factor 7 mRNA levels,human Factor 7 mRNA [1]; [4],67%
same,% Inhibition of human Factor 7 mRNA levels,"human Factor 7 mRNA [1]; gapmers (5-10-5, 3-14-3, 2-13-5 MOE) targeted to nucleobases 4868 to 4899 of SEQ ID NO: 1",67%
same,"percent inhibition of Factor 7 mRNA, 6.25 nM",human Factor 7 mRNA [2]; Example 5,42%
same,"percent inhibition of Factor 7 mRNA, 12.5 nM",human Factor 7 mRNA [2]; Example 5,51%
same,"percent inhibition of Factor 7 mRNA, 25.0 nM",human Factor 7 mRNA [2]; Example 5,71%
same,"percent inhibition of Factor 7 mRNA, 50.0 nM",human Factor 7 mRNA [2]; Example 5,79%
same,"percent inhibition of Factor 7 mRNA, 100.0 nM",human Factor 7 mRNA [2]; Example 5,89%
416477 (antisense e[5mC]*eA*eG*e[5mC]*e[5mC]*dT*dG*dA*dG*dG*d[5mC]*d[5mC]*dA*dG*d[5mC]*eA*eG*eA*eT*e[5mC]) [compound 416477],% Inhibition of human Factor 7 mRNA levels,human Factor 7 mRNA [1]; [4],74%
same,% Inhibition of human Factor 7 mRNA levels,human Factor 7 mRNA [1]; [5],71%
same,"percent inhibition of Factor 7 mRNA, 6.25 nM",human Factor 7 mRNA [2]; Example 5,21%
same,"percent inhibition of Factor 7 mRNA, 12.5 nM",human Factor 7 mRNA [2]; Example 5,46%
same,"percent inhibition of Factor 7 mRNA, 25.0 nM",human Factor 7 mRNA [2]; Example 5,64%
same,"percent inhibition of Factor 7 mRNA, 50.0 nM",human Factor 7 mRNA [2]; Example 5,78%
same,"percent inhibition of Factor 7 mRNA, 100.0 nM",human Factor 7 mRNA [2]; Example 5,87%
416492 (antisense eG*eG*eA*eT*e[5mC]*dA*dT*dT*d[5mC]*dT*dG*dG*d[5mC]*d[5mC]*d[5mC]*eT*eG*eA*eG*e[5mC]) [compound 416492],% Inhibition of human Factor 7 mRNA levels,human Factor 7 mRNA [1]; [4],13%
407656 (antisense e[5mC]*eA*eG*e[5mC]*eA*dA*dG*dA*dG*dT*dG*d[5mC]*dA*dG*d[5mC]*eT*eT*eG*e[5mC]*e[5mC]) [compound 407656],% Inhibition (human Factor 7 mRNA),human Factor 7 mRNA [1]; [3],43%
407649 (antisense eG*eA*eG*eG*eG*dT*dT*d[5mC]*dA*dT*dT*dT*d[5mC]*dA*dG*eT*eG*eA*eT*eG) [compound 407649],% Inhibition (human Factor 7 mRNA),human Factor 7 mRNA [1]; [3],24%
416561 (antisense eG*eG*eT*eG*eT*dG*dT*dT*d[5mC]*d[5mC]*d[5mC]*dA*dT*dA*dA*eA*eA*e[5mC]*eT*eT) [compound 416561],% Inhibition of human Factor 7 mRNA levels,human Factor 7 mRNA [1]; [4],16%
422243 (antisense eA*eG*dG*dA*dG*dA*d[5mC]*dA*dA*dT*dG*dG*dT*d[5mC]*dA*eG*eG*eG*e[5mC]*eT) [compound 422243],% Inhibition of human Factor 7 mRNA levels,human Factor 7 mRNA [1]; [6],62%
407627 (antisense eG*e[5mC]*e[5mC]*e[5mC]*eA*dG*d[5mC]*dA*d[5mC]*d[5mC]*dG*d[5mC]*dG*dA*dT*e[5mC]*eA*eG*eG*eT) [compound 407627],% Inhibition (human Factor 7 mRNA),human Factor 7 mRNA [1]; [3],79%
422094 (antisense e[5mC]*eA*eA*eT*eG*dG*dT*d[5mC]*dA*dG*dG*dG*d[5mC]*dT*dG*eG*eT*eT*eT*eT) [compound 422094],% Inhibition of human Factor 7 mRNA levels,human Factor 7 mRNA [1]; [6],48%
422206 (antisense e[5mC]*eA*eG*d[5mC]*dA*dG*d[5mC]*d[5mC]*dT*dG*dA*dG*dG*d[5mC]*d[5mC]*dA*dG*e[5mC]*eA*eG) [compound 422206],% Inhibition of human Factor 7 mRNA levels,human Factor 7 mRNA [1]; [5],65%
422268 (antisense eA*eG*d[5mC]*dG*d[5mC]*dG*dG*dA*dA*dG*dA*dA*dG*dG*dG*eA*e[5mC]*eG*eG*eA) [compound 422268],% Inhibition (human Factor 7 mRNA),human Factor 7 mRNA [1]; [7],63%
407937 (antisense eG*eA*eA*eG*eG*dG*dA*dG*dA*dA*dA*dT*dA*d[5mC]*dA*eT*eT*eT*eG*eG) [compound 407937],% Inhibition (human Factor 7 mRNA),human Factor 7 mRNA [1]; [3],59%
422114 (antisense e[5mC]*eG*e[5mC]*e[5mC]*eA*d[5mC]*d[5mC]*d[5mC]*dG*d[5mC]*d[5mC]*dG*dG*d[5mC]*dT*e[5mC]*eT*eG*e[5mC]*eT) [compound 422114],% Inhibition of human Factor 7 mRNA levels,human Factor 7 mRNA [1]; gapmers targeted to nucleobases 13760 to 13789 of SEQ ID NO: 1 (Table 10),50%
416435 (antisense e[5mC]*e[5mC]*e[5mC]*eA*eT*d[5mC]*dA*d[5mC]*dT*dG*dT*dA*dA*dG*dA*eA*eA*eT*e[5mC]*e[5mC]) [compound 416435],% Inhibition of human Factor 7 mRNA levels,human Factor 7 mRNA [1]; [4],3%
416481 (antisense eA*eG*eA*eT*eG*dA*dT*dA*dA*dT*dG*dG*dA*dT*dA*eA*eG*eA*eA*e[5mC]) [compound 416481],% Inhibition of human Factor 7 mRNA levels,human Factor 7 mRNA [1]; [4],15%
416489 (antisense eG*eT*eG*e[5mC]*eA*dG*d[5mC]*dT*dT*dG*d[5mC]*d[5mC]*dA*dG*dG*eT*e[5mC]*e[5mC]*eT*e[5mC]) [compound 416489],% Inhibition of human Factor 7 mRNA levels,human Factor 7 mRNA [1]; [4],38%
407891 (antisense e[5mC]*eA*eT*eG*eG*dA*d[5mC]*dT*dT*dG*dA*dG*dG*d[5mC]*dA*e[5mC]*eA*e[5mC]*eT*eG) [compound 407891],% Inhibition (human Factor 7 mRNA),human Factor 7 mRNA [1]; [3],66%
422186 (antisense eG*eG*eA*dA*dG*dA*dA*dG*dG*dG*dA*d[5mC]*dG*dG*dA*dA*dG*eG*eT*eG) [compound 422186],% Inhibition (human Factor 7 mRNA),human Factor 7 mRNA [1]; [7],14%
407895 (antisense e[5mC]*eA*e[5mC]*eA*e[5mC]*dA*dG*dA*dT*d[5mC]*dA*dG*d[5mC]*dT*dG*eG*eT*e[5mC]*eA*eT) [compound 407895],% Inhibition (human Factor 7 mRNA),human Factor 7 mRNA [1]; [3],72%
407612 (antisense eA*eG*eA*eT*e[5mC]*dA*dG*d[5mC]*dT*dG*dG*dT*d[5mC]*dA*dT*e[5mC]*e[5mC]*eT*eT*eG) [compound 407612],% Inhibition (human Factor 7 mRNA),human Factor 7 mRNA [1]; [3],82%
422129 (antisense eG*eT*eT*eA*e[5mC]*dT*dG*dA*dG*d[5mC]*dG*d[5mC]*dG*dG*dA*eA*eG*eA*eA*eG) [compound 422129],% Inhibition (human Factor 7 mRNA),human Factor 7 mRNA [1]; [7],45%
422132 (antisense eG*e[5mC]*eA*eG*e[5mC]*d[5mC]*dT*dG*dA*dG*dG*d[5mC]*d[5mC]*dA*dG*e[5mC]*eA*eG*eA*eT) [compound 422132],% Inhibition of human Factor 7 mRNA levels,human Factor 7 mRNA [1]; [5],54%
422196 (antisense eT*eA*e[5mC]*dT*dG*dA*dG*d[5mC]*dG*d[5mC]*dG*dG*dA*dA*dG*dA*dA*eG*eG*eG) [compound 422196],% Inhibition (human Factor 7 mRNA),human Factor 7 mRNA [1]; [7],2%
422273 (antisense eT*eA*d[5mC]*dT*dG*dA*dG*d[5mC]*dG*d[5mC]*dG*dG*dA*dA*dG*eA*eA*eG*eG*eG) [compound 422273],% Inhibition (human Factor 7 mRNA),human Factor 7 mRNA [1]; [7],0%
422240 (antisense eA*eG*dA*d[5mC]*dA*dA*dT*dG*dG*dT*d[5mC]*dA*dG*dG*dG*e[5mC]*eT*eG*eG*eT) [compound 422240],% Inhibition of human Factor 7 mRNA levels,human Factor 7 mRNA [1]; [6],66%
416466 (antisense eT*eG*eT*eG*eG*dG*d[5mC]*d[5mC]*dT*d[5mC]*d[5mC]*dA*d[5mC]*dT*dG*eT*e[5mC]*e[5mC]*e[5mC]*e[5mC]) [compound 416466],% Inhibition of human Factor 7 mRNA levels,human Factor 7 mRNA [1]; [4],57%
407617 (antisense eT*e[5mC]*e[5mC]*eA*e[5mC]*dA*dT*dG*dG*dA*dT*dA*dT*dT*d[5mC]*eA*eA*e[5mC]*eT*eG) [compound 407617],% Inhibition (human Factor 7 mRNA),human Factor 7 mRNA [1]; [3],67%
407917 (antisense eA*e[5mC]*eA*e[5mC]*e[5mC]*d[5mC]*d[5mC]*dA*dA*dA*dG*dT*dG*dG*d[5mC]*e[5mC]*e[5mC]*eA*e[5mC]*eG) [compound 407917],% Inhibition (human Factor 7 mRNA),human Factor 7 mRNA [1]; [3],70%
